Data on three compounds can be found in patent publication US5367110A, “Transgenic plants overproducing threonine and lysine” (Yeda Research and Development Co. Ltd., priority 1990, dated 1994).

Assay [1] concerns tobacco shoots (control and transgenic plant B-7). The assay is described as follows: Resistance of tobacco shoots to aminoethylcysteine (AEC). The class given is in vivo. The note with it: 0.1 and 0.15 mM AEC in MS medium; transgenic B-7 (E. coli DHPS) vs control. How it is done: To test whether the transgenic tobacco plants expressing the E. coli DHPS gene were more resistant to the lysine analog AEC compared to control nontransformed plants, shoots from control plants (FIG. 21, left) and from transgenic tobacco plant B-7 (FIG. 21, right) were dipped in MS medium containing 2 mg/l kinetin, 0.8 mg/l IAA and either 0, 0.1, 0.15 or 0.2 mM AEC.

The target in the next assay is T1, DHPS (Nicotiana tabacum, UniProt Q42948).
T1 construct: from tissue; host or cells: leaves of nontransformed tobacco (crude extract)
T1 sequence (Q42948 34-359): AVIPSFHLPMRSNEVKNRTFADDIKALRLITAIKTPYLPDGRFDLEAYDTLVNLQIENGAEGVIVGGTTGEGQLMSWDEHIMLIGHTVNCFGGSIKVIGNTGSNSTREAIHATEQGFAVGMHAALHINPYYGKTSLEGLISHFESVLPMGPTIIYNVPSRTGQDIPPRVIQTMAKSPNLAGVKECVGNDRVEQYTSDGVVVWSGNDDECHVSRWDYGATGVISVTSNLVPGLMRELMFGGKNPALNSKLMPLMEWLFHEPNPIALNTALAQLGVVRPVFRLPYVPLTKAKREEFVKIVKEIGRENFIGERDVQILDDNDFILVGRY
Briefly: DHPS activity (O-ABA assay) with increasing lysine, leaf extracts of control nontransformed tobacco. Format: biochemical. How it is done: (§1) Transgenic plants were screened for an elevated DHPS activity. DHPS activity was assayed in crude extracts from leaves of transgenic plants by the O-amino-benzaldehyde (O-ABA) assay of Yugari and Gilvarg (Yugari Y. and Gilvarg C., (1965) J. Biol. Chem. 240: 4710-4716) with slight modifications. Leaves from axenic tobacco plants grown in culture were homogenized with a mortar and pestle in an equal volume of cold 100 mM Tris-HCl pH 7.5 containing 1 mM phenylmethylsulfonylfluoride and 0.5 μg/ml leupeptine. Following 5 min centrifugation (16,000 xg, 4° C.) the supernatant was collected and its protein concentration was determined by the method of Bradford.
(§2) DHPS activity was assayed as above but in the presence of increasing lysine concentrations. At each lysine concentration, DHPS activity is presented as a percentage of the activity in extracts with no lysine added (average of two plants for each transformation). (Control)--nontransformed plants; (Cytoplasm)--average DHPS activity of plants A-11 and A-22 containing the cytoplasmic-type E. coli DHPS; (Chloroplast)--average DHPS activity of plants B-7 and B-15 containing the chloroplastic-type E. coli DHPS. The elevated levels of DHPS activity in the transgenic plants clearly resulted from the expression of the E. coli enzyme in them. […] In contrast, the I50 for DHPS inhibition by lysine in the control nontransformed plants was 27 μM.

For assay [2], the system named is E. coli DHPS. Briefly: DHPS activity (O-ABA assay) with increasing lysine, leaf extracts of transgenic tobacco expressing E. coli DHPS. The class given is biochemical. Conditions: transgenic vs wild type/control plants. How it is done:
as §1, §2

The target in assay [3] is T2, E. coli mutated, desensitized AK (Escherichia coli, UniProt P08660).
T2 construct: transgenic tobacco plant E-6, crude leaf extract
Briefly: AK activity with lysine and/or threonine, leaf extracts of transgenic plant E-6. Format: biochemical. Conditions: 10 mM lysine, threonine or both; transgenic plant E-6 (mutant bacterial enzyme). As to the method:
(§3) Transgenic plants were screened for an elevated AK activity. AK activity was assayed in crude extracts from leaves of transgenic plants by the method of Black and Wright (Black, S., et al. (1955) J. Biol. Chem. 213: 27-38). Leaves from axenic tobacco plants grown on Nitsch minimal medium (Nitsch, J. P. (1969) Phytomorphology 19: 389-404) in Magenta boxes for about one month were homogenized with a mortar and pestle in an equal volume of cold 20 mM potassium phosphate buffer pH 7.0 containing 30 mM β-mercaptoethanol, 0.1 mM L-lysine, 0.1 mM L-threonine, 1 mM phenylmethylsulfonilfluoride and 0.5 mM leupeptin. Following 5 min centrifugation (16,000 .g, 4° C.) the supernatant was collected and its protein concentration was determined by the method of Bradford (Bradford, M. M. (1976) Anal. Biochem. 72: 248-254). Equal amounts of protein were then tested for AK activity. […] The reaction mixture was stopped by addition of 0.25 ml of a 1:1:1 mixture of 10% FeCl3 in 0.1M HCl, 3M HCl and 12% TCA, centrifuged and the optical absorbance of the supernatant at 490 nm was measured.
(§4) AK activity was measured in crude extracts prepared from tobacco leaves as above except that 10 mM lysine, threonine or both amino acids were present in the reaction mixture as indicated on the right. […]

In the next assay the test system is plant DHPSs. The note with it: plant DHPS; read-out: I50 of plant DHPSs, lysine; cited from earlier work.
Assay [4] addresses T3, E. coli DHPS (Escherichia coli, UniProt P0A6L2). The note with it: cited from earlier work.
For assay [5], the target named is T3, E. coli DHPS. Briefly: DHPS activity (O-ABA assay) with increasing lysine, leaf extracts of transgenic tobacco expressing E. coli DHPS. Format: biochemical. Also on record: pea rbcS-3A chloroplast transit peptide (chloroplastic type only; absent in the cytoplasmic type) (N); expressed in transfected cells; host or cells: transgenic tobacco plants (crude leaf extract; A-11 and A-22 cytoplasmic type, B-7 and B-15 chloroplastic type). How it is done:
as §1, §2

In assay [6] the test system is nontransformed tobacco leaf AK. The assay is described as follows: AK activity with lysine and/or threonine, leaf extracts of nontransformed tobacco. The class given is biochemical. Conditions: 10 mM lysine, threonine or both; nontransformed (wild type) tobacco leaf extract. How it is done:
as §3, §4

Entries after “also recorded” stand apart in the source; their conditions may differ. Read-outs that look alike come from different tables or passages of the source.

T3 sequence (P0A6L2 whole entry): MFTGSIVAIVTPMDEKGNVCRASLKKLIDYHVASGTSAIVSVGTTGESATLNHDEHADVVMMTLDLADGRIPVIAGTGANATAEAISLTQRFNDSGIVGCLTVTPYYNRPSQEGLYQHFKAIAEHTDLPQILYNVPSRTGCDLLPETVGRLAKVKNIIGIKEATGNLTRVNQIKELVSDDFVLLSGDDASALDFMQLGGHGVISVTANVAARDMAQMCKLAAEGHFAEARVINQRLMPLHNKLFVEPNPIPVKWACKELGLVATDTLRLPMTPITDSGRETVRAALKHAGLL
T2 sequence (P08660 2-449, change not shown): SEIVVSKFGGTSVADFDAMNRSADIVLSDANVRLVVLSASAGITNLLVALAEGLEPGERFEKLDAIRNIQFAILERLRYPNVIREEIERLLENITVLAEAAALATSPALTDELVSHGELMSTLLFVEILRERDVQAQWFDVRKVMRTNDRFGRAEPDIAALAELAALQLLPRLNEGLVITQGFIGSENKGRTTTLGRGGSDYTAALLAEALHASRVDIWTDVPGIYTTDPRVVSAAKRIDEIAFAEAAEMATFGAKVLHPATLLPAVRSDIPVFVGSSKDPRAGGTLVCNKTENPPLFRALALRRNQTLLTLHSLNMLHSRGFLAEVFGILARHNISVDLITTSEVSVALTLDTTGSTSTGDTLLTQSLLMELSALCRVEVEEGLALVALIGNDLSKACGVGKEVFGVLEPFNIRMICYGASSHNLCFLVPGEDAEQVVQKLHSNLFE

Regarding `NCCSC[C@H](N)C(=O)O` [AEC, S-(2-aminoethyl)-L-cysteine], in assay [1], the “growth of transgenic shoots compared with control in AEC medium” value is recorded as “the transgenic plant clearly grows better than the control; also recorded: much less sensitive”.

Consider `NCCCC[C@H](N)C(=O)O` [lysine], for which the IC50 on DHPS is 0.027 mM; in the assay on plant DHPSs, 0.01 to 0.05 mM; at E. coli DHPS [4] (read-out: I50 of E. coli DHPS, lysine, E. coli DHPS), ~1 mM; at E. coli DHPS [4] (read-out: of E. coli DHPS, lysine inhibition, E. coli DHPS (dapA)), 1 mM; at E. coli DHPS [5] (transgenic tobacco plants, crude leaf extract, read-out: I50 for DHPS inhibition by lysine), 1.6 mM. Also, in the assay on E. coli DHPS [2], the “sensitivity of DHPS activity in transgenic plants to lysine inhibition compared with control plants” value is “less sensitive to lysine inhibition; also recorded: much more resistant to feedback inhibition”. In assay [3], the “inhibition of AK activity” value is listed as “completely resistant; also recorded: completely unaffected”. The inhibition at 1000 µM on E. coli DHPS [5] (1 mM lysine, read-out: inhibition of bacterial DHPS) was ~50%.

In the case of `C[C@@H](O)[C@H](N)C(=O)O` [threonine], the entries for the “inhibition of AK activity” value in assay [6] and in assay [3] were 70% and “completely resistant; also recorded: completely unaffected”, respectively.
